We go through three compounds from PubChem BioAssay AID2060902 (Molecular Pharmacology Branch, DTP, NCI, 2025).

This experiment concerns 485368-065-R3-J5-PDC spheroids with HUVEC/MSC, viability. The experiment can be described thus: Anticancer human tumor 485368-065-R3-J5-PDC patient-derived pancreatic carcinoma cell line growth inhibition [RAS]. The conditions noted are these: for viability, T/C: stronger effect = lower value. From the text: RAS pathway inhibitors in Combinations in Complex Spheroids
A high-throughput screen of multi-cell type tumor spheroids was designed to identify active combinations of RAS pathway inhibitors and targeted small molecules. Complex spheroids include a stromal component modeled by human endothelial cells (HUVEC) and fibroblasts modeled by human mesenchymal stem cells (MSCs). The concentration ranges selected for each drug and investigational agent were based upon clinically achievable concentrations if the clinical Cmax of the agent was known.
Compounds. The drugs and investigational agents: abemaciclib (NSC768073), cobimetinib (NSC768068), divarasib (GDC6063, NSC841802), docetaxel (NSC628503), GDC-1971 (RLY-1971, NSC841576), gemcitabine (NSC613327), inavolisib (NSC800729), ipatasertib (NSC767898), KB-0742 (NSC834161), MRTX-1133 (NSC836407), osimertinib (NSC779217), RMC-4630 (NSC839698), RMC-6236 (NSC851965), RMC-6291 (NSC852671), Ro-3306 (NSC812927), sapanisertib (NSC764658), SN-38 (NSC673596), staurosporine (NSC755774), SY5609 (NSC837396), and tovorafenib (DAY101, NSC766906), were obtained from the National Cancer Institute (NCI) Developmental Therapeutics Program Chemical Repository. The FDA-approved anticancer drug set is available from the NCI Developmental Therapeutics Program. […] The stock solutions were prepared in dimethyl sulfoxide (DMSO, Sigma-Aldrich, St. Louis, MO, cat. D2650) at 800-fold the tested concentration and stored at -70 degrees C prior to their use. All drugs and investigational agents were tested over a range starting from a high concentration at or near the clinical Cmax and decreasing in half-log increments. If the clinical Cmax for an agent had not been determined, the highest concentration tested was 10 microM.
Cell Culture. All cells were maintained in an incubator at 37 degrees C and 5% CO2 with 95% humidity. The PDC lines were cultured according to standard operating procedures established by the NCI PDMR. All PDCs were thawed and cultured in Matrigel-coated flasks prepared with a working solution of 1X Ham's F-12 nutrient mix, without supplementation (Invitrogen, Waltham, MA, cat. 11765054), 100 U/mL penicillin-streptomycin (Invitrogen, cat. 15140122), and 2.5% Matrigel (Corning Inc., Corning, NY, cat. 354248) for the first three passages. The 362531-283-R-J2-PDC and 782815-120-R-J1-PDC lines were cultured in 6C/Colon 1B media, which includes advanced DMEM/F-12 (Thermo Fisher Scientific, cat. 12634028), 10 mM HEPES (Thermo Fisher Scientific, cat. 15630080), 1X GlutaMAX supplement (Thermo Fisher Scientific, cat. 35050061), 0.1 mg/mL primocin (InvivoGen, San Diego, CA, cat. ant-pm-2), 10% defined fetal bovine serum, heat inactivated (HyClone Laboratories Inc., Logan, UT, cat. SH30070.03HI), 50% L-WRN conditioned media (ATCC, cat. CRL-3276), 1.25 mM N-Acetyl-L-cysteine (Sigma-Aldrich, cat. A9165), 10 mM nicotinamide (Sigma-Aldrich, cat. N0636), 1X B-27 supplement (Thermo Fisher Scientific, cat. 17504044), 1X N-2 supplement (Thermo Fisher Scientific, cat. 17502048), 50 ng/mL human EGF (Thermo Fisher Scientific, cat. PHG0311), and 10 microM Y-27632 dihydrochloride (Tocris Bioscience, cat. 1254). The K12877-001-R-J1-PDC line was cultured in 6I media, which includes all 6C/Colon 1B media plus 10 ng/mL human FGF-10 (PeproTech, cat. 100-26), 1 ng/mL human FGF-2 (PeproTech, cat. 100-18B), 1 µM prostaglandin E2 (Tocris Bioscience, cat. 2296), […] hydrocortisone (Sigma-Aldrich, cat. H4001), and […] bovine insulin (Sigma-Aldrich, cat. I6634). The K86415-001-R-J1-PDC line was cultured in 6D media, which includes all 6C/Colon 1B media components minus the L-WRN conditioned media. The 485176-168-R4-J1-PDC was cultured in PANC media, which includes all 6C/Colon 1B media plus 100 ng/mL human FGF-10 (PeproTech, cat. 100-26), 500 nM SB-431542 (Selleckchem, cat. S1067), and 10 nM gastrin (Tocris Bioscience, cat. 3006). […]

Structures are written as SMILES. Several values for one entry are separate records, joined by “and”; a condition that tells them apart may be missing. Equal entries are not always repeated. Where only a bound is given, the exact number is not on record here.
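Also: spheroids exposed to agents for seven days before readout.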

The term IC50 denotes the midpoint of a concentration-inhibition curve. As usually defined, the viability, T/C is the ratio of treated to control. As for `O=C(c1ccc(F)c(F)c1Nc1ccc(I)cc1F)N1CC(O)([C@@H]2CCCCN2)C1` + C#Cc1c(F)ccc2cc(O)cc(-c3ncc4c(N5CC6CCC(C5)N6)nc(OCC56CCCN5CC(F)C6)nc4c3F)c12, the IC50 was 31.5 nM (curve of first compound, second compound 0.0316 µM); 33.7 nM (curve of first compound, second compound 0.1 µM); 37.5 nM (curve of first compound, second compound 0.316 µM); 26.3 nM (curve of first compound, second compound 1 µM); 8.98 nM (curve of first compound, second compound 3.16 µM); below 3.16 nM (curve of first compound, second compound 10 µM). The viability, T/C (second compound 0.0316 µM, first compound 0.00316 µM) was 90.3%; the viability, T/C (second compound 0.0316 µM, first compound 0.01 µM) is 65.9%; the viability, T/C (second compound 0.0316 µM, first compound 0.0316 µM) is 49.5%; the viability, T/C (second compound 0.0316 µM, first compound 0.1 µM) is 31.9%; the viability, T/C (second compound 0.0316 µM, first compound 0.316 µM) is 28.1%; the viability, T/C (second compound 0.0316 µM, first compound 1 µM) is 8.9%. Further, the viability, T/C (second compound 0.1 µM, first compound 0.00316 µM) was 80.8%; the viability, T/C (second compound 0.1 µM, first compound 0.01 µM) is 68.9%; the viability, T/C (second compound 0.1 µM, first compound 0.0316 µM) is 50%; the viability, T/C (second compound 0.1 µM, first compound 0.1 µM) was 32.3%; the viability, T/C (second compound 0.1 µM, first compound 0.316 µM) is 26%; the viability, T/C (second compound 0.1 µM, first compound 1 µM) was 9.17%. The viability, T/C was 91.1% (second compound 0.316 µM, first compound 0.00316 µM); 73% (second compound 0.316 µM, first compound 0.01 µM); 46.6% (second compound 0.316 µM, first compound 0.0316 µM); 39.4% (second compound 0.316 µM, first compound 0.1 µM); 25.4% (second compound 0.316 µM, first compound 0.316 µM); 9% (second compound 0.316 µM, first compound 1 µM). In addition, the viability, T/C is 87.4% (second compound 1 µM, first compound 0.00316 µM); 62% (second compound 1 µM, first compound 0.01 µM); 48.6% (second compound 1 µM, first compound 0.0316 µM); 31.1% (second compound 1 µM, first compound 0.1 µM); 22.5% (second compound 1 µM, first compound 0.316 µM); 8.96% (second compound 1 µM, first compound 1 µM). In addition, the viability, T/C reads like this: (second compound 3.16 µM, first compound 0.00316 µM) 58.8%; (second compound 3.16 µM, first compound 0.01 µM) 50%; (second compound 3.16 µM, first compound 0.0316 µM) 38.7%; (second compound 3.16 µM, first compound 0.1 µM) 24%; (second compound 3.16 µM, first compound 0.316 µM) 19.9%; (second compound 3.16 µM, first compound 1 µM) 5.77%. The viability, T/C (second compound 10 µM, first compound 0.00316 µM) is 45.1%; the viability, T/C (second compound 10 µM, first compound 0.01 µM) was 29.8%; the viability, T/C (second compound 10 µM, first compound 0.0316 µM) was 26.5%; the viability, T/C (second compound 10 µM, first compound 0.1 µM) was 17.2%; the viability, T/C (second compound 10 µM, first compound 0.316 µM) is 11.2%; the viability, T/C (second compound 10 µM, first compound 1 µM) is 3.65%.
Turning to `Nc1ccn(C2OC(CO)C(O)C2(F)F)c(=O)n1` (stereo unspecified), the viability, T/C was 100% [middle of 4 runs] (compound 0.00316 µM); 29.2% [middle of 4 runs] (compound 0.01 µM); 10.9% [middle of 4 runs] (compound 0.0316 µM); 10.5% [middle of 4 runs] (compound 0.1 µM); 12.1% [middle of 4 runs] (compound 0.316 µM); 11.3% [middle of 4 runs] (compound 1 µM). The IC50 (curve of compound) is 7.13 nM and 6.64 nM and 6.75 nM.
As for `CCn1c(-c2cccnc2C(C)OC)c2c3cc(ccc31)N1CCOC(CC(NC(=O)C(C(C)C)N(C)C(=O)C3(F)CCN(C(=O)C#CC(C)(C)N(C)C)CC3)C(=O)N3CCCC(N3)C(=O)OCC(C)(C)C2)C1` (stereo unspecified), the viability, T/C reads like this: (compound 0.000949 µM) 102% [middle of 8 runs]; (compound 0.003 µM) 103% [middle of 8 runs]; (compound 0.00949 µM) 102% [middle of 8 runs]; (compound 0.03 µM) 97.4% [middle of 8 runs]; (compound 0.0949 µM) 98% [middle of 8 runs]; (compound 0.3 µM) 96.9% [middle of 8 runs]. Besides, the IC50 (compound alone, run of 07/09/2024) was above 300 nM.
